# From ChEMBL document CHEMBL1201862, “PubChem BioAssay data set” (2004)
# The source made the active and inactive calls.
# Tests used:
# [1] = Counterscreen for IDE inhibitors: Luminescence-based cell-based high throughput dose response assay to identify compounds that are cytotoxic to HEK cells. [Related pubchem assays: 434962 (Primary screen (IDE inhibitors in singlicate)), 449730 (Counterscreen (Cytotoxicity in triplicate)), 435028 (Confirmation (IDE inhibitors in triplicate)) …; type: functional; conditions: HEK293
# [2] = molecular target: T1, Insulin-degrading enzyme (Homo sapiens, UniProt P14735); test: Dose Response: Fluorescence polarization-based cell-based high throughput dose response assay for inhibitors of insulin-degrading enzyme (IDE). [Related pubchem assays: 434962 (Primary screen (IDE inhibitors in singlicate)), 449730 (Counterscreen (Cytotoxicity in triplicate)), 435028 (Confirmation (IDE inhibitors in triplicate)), 434984 (Summary …; type: functional
# T1 sequence (P14735 whole entry): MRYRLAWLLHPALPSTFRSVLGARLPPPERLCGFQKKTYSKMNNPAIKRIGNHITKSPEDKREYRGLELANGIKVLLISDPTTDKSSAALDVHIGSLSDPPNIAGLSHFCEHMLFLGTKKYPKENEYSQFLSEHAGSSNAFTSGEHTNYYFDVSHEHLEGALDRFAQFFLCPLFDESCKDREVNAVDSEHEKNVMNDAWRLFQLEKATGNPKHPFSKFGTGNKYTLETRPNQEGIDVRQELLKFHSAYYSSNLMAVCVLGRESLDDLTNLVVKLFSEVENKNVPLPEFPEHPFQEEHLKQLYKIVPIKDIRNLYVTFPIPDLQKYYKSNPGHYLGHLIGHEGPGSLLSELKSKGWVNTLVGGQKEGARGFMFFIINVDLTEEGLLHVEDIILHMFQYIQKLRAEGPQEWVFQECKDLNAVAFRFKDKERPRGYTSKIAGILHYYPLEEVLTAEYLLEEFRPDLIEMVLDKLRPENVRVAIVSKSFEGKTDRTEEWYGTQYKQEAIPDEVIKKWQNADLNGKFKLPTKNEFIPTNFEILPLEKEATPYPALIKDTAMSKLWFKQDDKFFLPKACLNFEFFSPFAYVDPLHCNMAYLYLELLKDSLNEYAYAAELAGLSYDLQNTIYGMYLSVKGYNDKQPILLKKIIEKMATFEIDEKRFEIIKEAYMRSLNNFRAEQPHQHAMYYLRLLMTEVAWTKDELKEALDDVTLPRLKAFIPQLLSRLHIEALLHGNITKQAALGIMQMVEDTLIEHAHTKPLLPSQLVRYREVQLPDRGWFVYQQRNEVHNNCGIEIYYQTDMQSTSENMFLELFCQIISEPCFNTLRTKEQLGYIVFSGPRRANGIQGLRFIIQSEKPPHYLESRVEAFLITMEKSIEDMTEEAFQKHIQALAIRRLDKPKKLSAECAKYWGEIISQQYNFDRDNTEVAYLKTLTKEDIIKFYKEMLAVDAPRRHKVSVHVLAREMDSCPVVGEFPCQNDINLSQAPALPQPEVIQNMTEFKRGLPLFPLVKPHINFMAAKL
# [3] = A Cell Based Secondary Assay To Explore Cytotoxicity of Compounds that Sensitize Mycobacterium Tuberculosis to Beta-Lactam Antibiotics.; type: functional
# [4] = growth suppression of beta-catenin-knockout colon cells, dose response, cell-based, HCT116, human colon tumor (AID 1045); type: functional;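 further: HCT116 colon tumor cells with beta catenin knocked out; cells exposed to compound for 60 hours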
# [5] = molecular target: T2, Acyl-homoserine lactone acylase PvdQ (Pseudomonas aeruginosa (strain LESB58), UniProt Q9I194); test: P. aeruginosa PvdQ acylase inhibitors, dose response, biochemical, fluorescence, plate reader and imaging, cherry-picks (AID 493231)
# T2 sequence (Q9I194 whole entry): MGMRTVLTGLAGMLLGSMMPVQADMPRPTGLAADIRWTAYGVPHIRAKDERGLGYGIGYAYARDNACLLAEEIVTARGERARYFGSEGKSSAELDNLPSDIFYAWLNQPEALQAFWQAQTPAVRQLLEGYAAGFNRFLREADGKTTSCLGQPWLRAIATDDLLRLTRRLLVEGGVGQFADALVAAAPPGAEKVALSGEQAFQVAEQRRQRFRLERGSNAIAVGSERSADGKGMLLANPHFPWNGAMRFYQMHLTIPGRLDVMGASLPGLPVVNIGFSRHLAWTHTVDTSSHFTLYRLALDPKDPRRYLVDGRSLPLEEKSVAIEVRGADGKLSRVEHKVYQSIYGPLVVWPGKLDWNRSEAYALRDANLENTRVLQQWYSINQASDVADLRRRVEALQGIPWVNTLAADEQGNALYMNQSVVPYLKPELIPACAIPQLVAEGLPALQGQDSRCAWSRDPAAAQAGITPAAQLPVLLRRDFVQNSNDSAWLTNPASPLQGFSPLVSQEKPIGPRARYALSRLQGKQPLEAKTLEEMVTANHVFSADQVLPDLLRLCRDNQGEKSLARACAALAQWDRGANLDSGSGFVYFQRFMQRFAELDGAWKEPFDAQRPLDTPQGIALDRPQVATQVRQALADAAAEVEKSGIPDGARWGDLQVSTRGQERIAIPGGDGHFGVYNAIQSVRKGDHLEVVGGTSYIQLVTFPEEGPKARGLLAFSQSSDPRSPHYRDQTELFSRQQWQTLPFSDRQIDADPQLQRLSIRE
# [6] = growth suppression of PTEN-null colon cells, dose response, cell-based, HCT116 PTEN knockout (AID 1047); type: functional;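 further: HCT116 colon tumor cells with PTEN knocked out; cells exposed to compound for 60 hours before readout; potency for loss of cell viability measured by luminescence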
# [7] = molecular target: Peroxisome proliferator-activated receptor gamma/Nuclear receptor coactivator 2 (Homo sapiens, UniProt P37231); type: functional;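 further: agonist potency for raising coactivator recruitment to the receptor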
# [8] = molecular target: Peroxisome proliferator-activated receptor gamma/Nuclear receptor coactivator 1 (Homo sapiens, UniProt P37231); type: functional;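 further: agonist potency as compounds enhance coactivator SRC-1 recruitment to PPARgamma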
# [9] = molecular target: Peroxisome proliferator-activated receptor gamma/Nuclear receptor coactivator 3 (Homo sapiens, UniProt P37231); type: functional;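 further: agonist potency for raising coactivator recruitment to the receptor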
# [10] = molecular target: T3, Lysosomal acid glucosylceramidase (Homo sapiens, UniProt P04062); test: Dose response cell-based high throughput screening assay to identify enhancers of beta-glucosidase activity. [Related pubchem assays: 784 ]; type: functional
# T3 sequence (P04062 whole entry): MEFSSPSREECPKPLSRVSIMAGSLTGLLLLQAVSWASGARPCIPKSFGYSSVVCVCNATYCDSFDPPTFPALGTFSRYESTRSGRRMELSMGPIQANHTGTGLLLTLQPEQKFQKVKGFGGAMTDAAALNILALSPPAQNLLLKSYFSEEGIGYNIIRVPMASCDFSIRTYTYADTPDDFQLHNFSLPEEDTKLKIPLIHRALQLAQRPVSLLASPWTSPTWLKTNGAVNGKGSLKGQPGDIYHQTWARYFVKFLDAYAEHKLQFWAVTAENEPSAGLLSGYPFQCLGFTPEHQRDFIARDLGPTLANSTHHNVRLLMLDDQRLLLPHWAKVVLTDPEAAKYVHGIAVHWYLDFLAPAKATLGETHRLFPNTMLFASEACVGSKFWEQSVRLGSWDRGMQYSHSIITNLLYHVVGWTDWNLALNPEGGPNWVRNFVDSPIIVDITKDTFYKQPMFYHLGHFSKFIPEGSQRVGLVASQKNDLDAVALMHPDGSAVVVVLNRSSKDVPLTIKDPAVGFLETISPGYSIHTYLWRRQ
# [11] = M. tuberculosis H37Rv growth inhibitors, H37Rv strain (AID 1626); type: functional
# [12] = molecular target: Melanocortin receptor 4 (Homo sapiens, UniProt P32245); type: functional, cell-based;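 further: Cell-based assay with luminescence read-out, confirmatory dose-response testing for agonist activity of biased ligands at MC4R; human U2OS cells with tagged receptor and beta-arrestin; potency of agonists that increase receptor coupling to beta-arrestin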
# [13] = Luminescence Cell-Based Dose Retest to Confirm Inhibitors of Cancer Stem Cells. [Related pubchem assays (depositor defined):AID2717, AID2721]; type: functional; conditions: Homo sapiens
# [14] = molecular target: G-protein coupled receptor 35 (Homo sapiens, UniProt Q9HC97); test: GPR35 antagonists blocking zaprinast-driven arrestin recruitment, primary screen, imaging, U2OS, beta-arrestin-GFP, zaprinast agonist (AID 2058); type: functional;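 further: antagonist potency meaning inhibition of agonist-induced arrestin redistribution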
# [15] = molecular target: T4, Streptokinase A (Streptococcus pyogenes serotype M1, UniProt P10520); test: S. pyogenes streptokinase expression inhibitors, potency, dose response, plasminogen activation absorbance, OD405 (AID 1914); type: functional, Streptococcus pyogenes M1 GAS;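 further: secreted streptokinase activity via plasminogen activation per viability signal from cell pellet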
# T4 sequence (P10520 whole entry): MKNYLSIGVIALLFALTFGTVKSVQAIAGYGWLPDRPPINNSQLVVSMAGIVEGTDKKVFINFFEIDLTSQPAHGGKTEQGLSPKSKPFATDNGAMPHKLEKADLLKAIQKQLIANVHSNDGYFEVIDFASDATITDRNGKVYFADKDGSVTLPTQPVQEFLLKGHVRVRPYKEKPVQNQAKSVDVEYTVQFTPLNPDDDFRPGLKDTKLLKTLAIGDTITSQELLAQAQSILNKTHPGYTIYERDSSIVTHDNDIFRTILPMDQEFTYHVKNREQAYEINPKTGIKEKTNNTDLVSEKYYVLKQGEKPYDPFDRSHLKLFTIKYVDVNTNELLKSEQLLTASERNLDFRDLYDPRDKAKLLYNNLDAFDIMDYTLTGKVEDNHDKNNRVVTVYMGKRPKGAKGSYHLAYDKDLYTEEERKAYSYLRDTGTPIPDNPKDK
# [16] = test system: Streptococcus; test: Group A Streptococcus viability loss, dose response, counter-screen for streptokinase expression inhibitor project, luminescence, BacTiterGlo (AID 1915); type: functional, organism-based;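 further: potency for reduction of bacterial viability or growth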
# [17] = test system: Streptococcus sp. 'group A'; test: growth inhibition of control SK(-) GAS strain, dose response, counter-screen for streptokinase expression inhibitor project, luminescence, kanamycin, BacTiterGlo, confirmation (AID 1900); type: functional, organism-based
# [18] = molecular target: Cytochrome P450 2C9 (Homo sapiens, UniProt P11712)
# [19] = molecular target: Cytochrome P450 2C19 (Homo sapiens, UniProt P33261); test: Cytochrome panel assay with activity outcomes. Panel member name: p450-cyp2c19 Compounds with AC50 equal or less than 10 uM are considered active; type: functional; conditions: read-out: AC50
# [20] = molecular target: Heat shock protein HSP 90-alpha (Homo sapiens, UniProt P07900); type: functional, organism-based
# [21] = cytotoxicity in KRAS-transformed pancreatic duct cells, primary screen, cell-based, fluorescence, HTS (AID 431); type: functional; conditions: Homo sapiens;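 further: cell line used: HPDE-C7K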
# [22] = cytotoxicity in HPDE-C7 cells, cell-based, fluorescence, HTS (AID 430); type: functional; conditions: Homo sapiens
# [23] = cells; type: functional, cell-based
# [24] = cells; type: functional, cell-based; remark: listed apart in the source
# [25] = molecular target: DNA dC->dU-editing enzyme APOBEC-3A (Homo sapiens, UniProt P31941); test: APOBEC3A DNA deaminase inhibitors, dose response, biochemical (AID 504722); type: functional
# [26] = molecular target: DNA dC->dU-editing enzyme APOBEC-3G (Homo sapiens, UniProt Q9HC16); test: Dose Response confirmation of small molecule APOBEC3G DNA Deaminase Inhibitors via a fluorescence-based single-stranded DNA deaminase assay. [Related pubchem assays (depositor defined):AID493012, AID493028]; type: functional
# Chain of DNA dC->dU-editing enzyme APOBEC-3G (Q9HC16 whole entry): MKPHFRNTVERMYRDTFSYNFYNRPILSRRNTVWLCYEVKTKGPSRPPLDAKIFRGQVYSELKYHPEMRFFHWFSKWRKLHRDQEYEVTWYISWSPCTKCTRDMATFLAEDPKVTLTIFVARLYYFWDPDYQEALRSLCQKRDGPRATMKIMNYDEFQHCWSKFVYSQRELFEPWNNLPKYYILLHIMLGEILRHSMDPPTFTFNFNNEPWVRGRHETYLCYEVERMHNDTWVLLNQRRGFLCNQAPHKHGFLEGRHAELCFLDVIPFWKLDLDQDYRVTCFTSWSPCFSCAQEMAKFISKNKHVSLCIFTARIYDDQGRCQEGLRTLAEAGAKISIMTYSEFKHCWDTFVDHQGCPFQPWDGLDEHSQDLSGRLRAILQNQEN
# Chain of Peroxisome proliferator-activated receptor gamma/Nuclear receptor coactivator 3 (P37231 whole entry): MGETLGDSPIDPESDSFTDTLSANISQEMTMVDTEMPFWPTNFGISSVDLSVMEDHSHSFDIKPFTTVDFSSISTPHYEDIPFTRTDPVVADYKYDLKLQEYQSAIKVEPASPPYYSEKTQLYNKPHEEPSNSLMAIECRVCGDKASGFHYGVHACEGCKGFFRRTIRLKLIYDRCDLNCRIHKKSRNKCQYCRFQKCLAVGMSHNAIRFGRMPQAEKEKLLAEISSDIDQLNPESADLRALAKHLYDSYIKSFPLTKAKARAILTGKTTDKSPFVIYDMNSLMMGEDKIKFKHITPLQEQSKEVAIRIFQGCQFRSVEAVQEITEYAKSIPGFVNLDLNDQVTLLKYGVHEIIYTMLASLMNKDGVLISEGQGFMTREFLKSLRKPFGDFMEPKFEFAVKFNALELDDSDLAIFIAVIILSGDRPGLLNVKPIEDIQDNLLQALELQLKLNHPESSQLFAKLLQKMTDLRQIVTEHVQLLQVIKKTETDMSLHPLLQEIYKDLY
# Chain of Peroxisome proliferator-activated receptor gamma/Nuclear receptor coactivator 3 (Q9Y6Q9 whole entry, further chain): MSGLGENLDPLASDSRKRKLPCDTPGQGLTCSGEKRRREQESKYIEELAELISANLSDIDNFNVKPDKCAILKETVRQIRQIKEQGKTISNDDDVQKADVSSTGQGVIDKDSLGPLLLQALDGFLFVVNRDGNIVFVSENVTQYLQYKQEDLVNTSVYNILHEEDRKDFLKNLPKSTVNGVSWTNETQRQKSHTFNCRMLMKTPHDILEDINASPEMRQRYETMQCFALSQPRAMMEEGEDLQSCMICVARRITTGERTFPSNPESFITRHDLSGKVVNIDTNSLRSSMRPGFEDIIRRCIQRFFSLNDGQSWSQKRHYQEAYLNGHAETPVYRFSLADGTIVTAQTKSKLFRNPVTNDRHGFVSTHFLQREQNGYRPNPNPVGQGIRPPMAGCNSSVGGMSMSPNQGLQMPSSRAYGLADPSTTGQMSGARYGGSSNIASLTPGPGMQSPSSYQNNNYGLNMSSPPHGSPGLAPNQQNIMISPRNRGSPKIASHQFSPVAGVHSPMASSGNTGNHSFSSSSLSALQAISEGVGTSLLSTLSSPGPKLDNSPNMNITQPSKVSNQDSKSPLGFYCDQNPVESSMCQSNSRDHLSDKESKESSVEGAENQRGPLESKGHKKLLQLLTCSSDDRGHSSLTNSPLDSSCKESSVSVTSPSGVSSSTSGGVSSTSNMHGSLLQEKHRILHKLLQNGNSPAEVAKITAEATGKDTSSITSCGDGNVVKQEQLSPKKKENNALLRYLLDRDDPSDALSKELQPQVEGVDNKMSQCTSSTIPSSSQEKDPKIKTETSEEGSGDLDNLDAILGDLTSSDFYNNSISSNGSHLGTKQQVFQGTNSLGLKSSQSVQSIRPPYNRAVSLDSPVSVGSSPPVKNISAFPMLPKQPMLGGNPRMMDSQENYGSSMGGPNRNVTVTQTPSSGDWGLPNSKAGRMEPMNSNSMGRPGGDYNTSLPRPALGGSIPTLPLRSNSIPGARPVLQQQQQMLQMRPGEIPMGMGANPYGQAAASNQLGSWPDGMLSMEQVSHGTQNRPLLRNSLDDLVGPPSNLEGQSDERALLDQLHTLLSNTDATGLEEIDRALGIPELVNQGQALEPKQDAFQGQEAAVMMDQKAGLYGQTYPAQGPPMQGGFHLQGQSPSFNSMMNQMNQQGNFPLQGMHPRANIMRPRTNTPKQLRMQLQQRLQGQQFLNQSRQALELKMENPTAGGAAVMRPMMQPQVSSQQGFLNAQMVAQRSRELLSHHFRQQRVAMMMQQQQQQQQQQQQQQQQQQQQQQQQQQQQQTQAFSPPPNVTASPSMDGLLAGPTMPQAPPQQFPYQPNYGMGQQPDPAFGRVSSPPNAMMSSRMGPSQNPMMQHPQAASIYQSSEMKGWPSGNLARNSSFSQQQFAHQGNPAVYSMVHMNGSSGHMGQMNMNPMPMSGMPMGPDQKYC
# Chain of Peroxisome proliferator-activated receptor gamma/Nuclear receptor coactivator 1 (P37231 whole entry): as the sequence (P37231 whole entry) above
# Chain of Peroxisome proliferator-activated receptor gamma/Nuclear receptor coactivator 1 (Q15788 whole entry, further chain): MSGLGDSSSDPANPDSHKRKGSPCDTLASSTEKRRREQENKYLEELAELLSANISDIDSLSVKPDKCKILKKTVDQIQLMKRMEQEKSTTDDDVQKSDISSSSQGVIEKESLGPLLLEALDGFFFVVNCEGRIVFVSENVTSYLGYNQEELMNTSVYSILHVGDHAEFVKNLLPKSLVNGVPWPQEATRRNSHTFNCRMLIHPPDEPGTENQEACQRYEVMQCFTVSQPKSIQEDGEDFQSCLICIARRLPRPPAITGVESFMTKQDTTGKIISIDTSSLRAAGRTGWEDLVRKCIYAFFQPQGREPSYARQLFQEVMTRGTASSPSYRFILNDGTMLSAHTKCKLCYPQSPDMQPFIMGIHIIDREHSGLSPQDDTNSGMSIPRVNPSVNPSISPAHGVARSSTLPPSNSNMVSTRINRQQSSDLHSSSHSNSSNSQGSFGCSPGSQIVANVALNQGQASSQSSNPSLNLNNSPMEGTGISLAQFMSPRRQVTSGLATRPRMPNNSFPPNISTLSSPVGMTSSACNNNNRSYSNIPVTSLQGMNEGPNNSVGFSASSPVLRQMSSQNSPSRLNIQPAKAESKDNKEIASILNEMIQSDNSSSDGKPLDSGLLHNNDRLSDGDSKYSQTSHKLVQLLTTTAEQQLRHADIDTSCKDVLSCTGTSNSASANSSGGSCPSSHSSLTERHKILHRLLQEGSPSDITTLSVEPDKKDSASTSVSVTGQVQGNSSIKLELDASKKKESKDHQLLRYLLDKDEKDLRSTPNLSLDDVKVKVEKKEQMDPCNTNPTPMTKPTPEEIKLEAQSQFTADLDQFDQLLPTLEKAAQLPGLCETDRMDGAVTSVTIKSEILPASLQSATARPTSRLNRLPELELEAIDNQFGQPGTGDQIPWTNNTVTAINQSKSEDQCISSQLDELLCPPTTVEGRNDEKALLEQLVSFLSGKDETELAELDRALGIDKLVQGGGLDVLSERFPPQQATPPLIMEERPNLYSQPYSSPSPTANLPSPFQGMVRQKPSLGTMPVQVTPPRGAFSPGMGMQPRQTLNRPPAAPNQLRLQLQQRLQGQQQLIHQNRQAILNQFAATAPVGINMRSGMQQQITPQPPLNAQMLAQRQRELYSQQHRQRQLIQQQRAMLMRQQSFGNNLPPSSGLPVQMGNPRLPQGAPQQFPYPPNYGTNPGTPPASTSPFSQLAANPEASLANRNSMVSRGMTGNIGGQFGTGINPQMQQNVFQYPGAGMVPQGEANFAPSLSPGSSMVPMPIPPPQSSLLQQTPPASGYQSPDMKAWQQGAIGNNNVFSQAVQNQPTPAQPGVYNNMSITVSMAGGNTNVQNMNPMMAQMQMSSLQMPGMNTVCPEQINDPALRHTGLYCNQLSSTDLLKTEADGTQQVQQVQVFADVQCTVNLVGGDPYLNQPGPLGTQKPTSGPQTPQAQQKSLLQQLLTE
# Chain of G-protein coupled receptor 35 (Q9HC97 whole entry): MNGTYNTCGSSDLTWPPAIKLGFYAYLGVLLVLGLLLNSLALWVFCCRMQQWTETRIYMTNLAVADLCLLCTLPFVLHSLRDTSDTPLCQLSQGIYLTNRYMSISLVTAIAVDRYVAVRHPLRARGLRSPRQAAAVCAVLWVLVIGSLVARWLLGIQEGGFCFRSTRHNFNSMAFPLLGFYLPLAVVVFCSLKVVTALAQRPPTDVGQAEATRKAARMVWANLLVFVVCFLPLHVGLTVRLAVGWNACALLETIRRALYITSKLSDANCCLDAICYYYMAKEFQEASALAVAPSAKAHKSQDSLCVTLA
# Chain of DNA dC->dU-editing enzyme APOBEC-3A (P31941 whole entry): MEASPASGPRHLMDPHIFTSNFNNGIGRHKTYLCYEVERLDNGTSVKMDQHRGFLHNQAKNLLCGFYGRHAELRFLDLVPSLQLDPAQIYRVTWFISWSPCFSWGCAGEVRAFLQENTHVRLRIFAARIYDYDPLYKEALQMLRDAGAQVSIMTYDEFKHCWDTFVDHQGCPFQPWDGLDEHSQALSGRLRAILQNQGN
smiles,measurement,setting,value
CCN1C(=O)/C(=C/C=C2/CCCN2C)OC1=S,IC50,[1],> 55.7 µM (not active)
same,IC50,[2],30.7 µM (not active)
O=C(/C=C/c1ccc([N+](=O)[O-])cc1)c1cccs1,CC50,[3],20.9 µM (active)
O=C(Nc1ccccc1-c1ccccc1)C12CC3CC(CC(C3)C1)C2,CC50,[3],> 40 µM (active)
Oc1ccc(F)cc1-c1cc(-c2ccc3c(c2)OCCO3)[nH]n1,EC50,[4],25.9 µM (active)
same,AC50,[5],> 100 µM (inactive)
same,EC50,[6],46.6 µM (active)
CCn1c(SCC(=O)O)nnc1C1CCCCC1,EC50,[7],> 79.4 µM (not active)
same,EC50,[8],> 79.4 µM (not active)
same,EC50,[9],> 79.4 µM (not active)
Cc1ccc(S(=O)(=O)NCc2ccc3c(c2)OCO3)cc1C,AC50,[5],70.4 µM (active)
COc1ccc(NC(=O)CN2CCN(S(=O)(=O)c3ccc(C(C)C)cc3)CC2)cc1OC,EC50,[10],> 10 µM (not active)
O=C(COc1ccc2c(c1)OCO2)Nc1ccc2c(c1)oc1ccccc12,IC50,[11],> 100 µM (active)
same,EC50,[12],> 89.2 µM (inactive)
CCC(C)NS(=O)(=O)c1ccc(OC)c(Cl)c1Cl (stereo not drawn),AC50,[5],10 µM (active)
O=C(c1cc(COc2ccc(F)cc2Cl)on1)N1CCC(OCc2cccnc2)CC1,IC50,[11],> 100 µM (active)
Cc1nonc1NC(=O)CSc1nc2cc(Cl)ccc2c2c1CCCC2,EC50,[10],> 10 µM (not active)
CC(NS(=O)(=O)OCC(Cl)(Cl)Cl)c1ccc(C(C)(C)C)cc1 (stereo not drawn),AC50,[13],2.77 µM (active)
same,IC50,[14],1.46 µM (active)
same,EC50,[15],4.06 µM (active)
same,EC50,[16],12.8 µM (active)
same,EC50,[17],4.61 µM (active)
Cn1c(/C(C#N)=C(\O)c2ccc(S(=O)(=O)N3CCCCC3)cc2)nc2ccccc21,AC50,[18],0.316 µM (inconclusive)
same,EC50,[10],> 50 µM (not active)
same,AC50,[19],10 µM (inconclusive)
Cc1cccnc1NC(=O)c1c(O)c2cccc3c2n(c1=O)CCC3,CC50,[3],> 40 µM (active)
CCCOC(=O)c1ccc(Oc2c[nH]nc2-c2ccc(OC)cc2O)cc1,AC50,[20],7.97 µM (active)
same,EC50,[21],6.14 µM (active)
same,EC50,[16],10.3 µM (active)
same,EC50,[22],8.49 µM (active)
same,EC50,[17],8.73 µM (active)
CCCCSc1nnc([C@H](C)NC(=O)OC(C)(C)C)o1,EC50,[7],> 79.4 µM (not active)
same,EC50,[8],> 79.4 µM (not active)
same,EC50,[9],> 79.4 µM (not active)
NNc1nc2c(-c3ccc(F)cc3)nnn2c2ccccc12,EC50,[7],> 79.4 µM (not active)
same,EC50,[8],> 79.4 µM (not active)
same,EC50,[9],> 79.4 µM (not active)
CCc1c(C#N)c(N)nc(SCC(=O)OCc2ccccc2)c1C#N,IC50,[11],> 100 µM (active)
Cc1cc(C)cc(Nc2cnn(C34CC5CC(CC(CC(=O)O)(C5)C3)C4)c(=O)c2Cl)c1,IC50,[1],0.0039 µM (active)
same,IC50,[2],21.5 µM (not active)
CCCCCCN1C=CC=C/C1=C/C=C(C#N)C#N,EC50,[23],> 350 µM (not active)
same,IC50,[1],45.9 µM (not active)
same,EC50,[24],> 350 µM (not active)
same,IC50,[2],> 6.22 µM (active)
CCc1nnc(S)n1/N=C/c1c(O)ccc2ccccc12,IC50,[25],> 100 µM (inactive)
same,IC50,[26],4 µM (active)
CC(C)(C)C1CCC2(CC1)C(C#N)=C(SCC(=O)Nc1ccccc1)NC(=O)C2C#N (stereo not drawn),EC50,[21],4.26 µM (active)
same,EC50,[15],11.5 µM (active)
same,EC50,[16],25.2 µM (active)
same,EC50,[22],5.05 µM (active)
same,EC50,[17],4.96 µM (active)
CN(C)/C=C/C(=O)c1ccc(N2CCN(c3ncc(C(F)(F)F)cc3Cl)CC2)cc1,IC50,[14],0.53 µM (active)
same,AC50,[20],4.29 µM (active)
